Measurements as given in patent US11339448B2, “Treatment of acute myeloid leukemia” (Ottawa Hospital Research Institute, priority 2018, dated 2022).

Columns and labels:
Format in all cases: cell-based, human
[1] = system: Lin−CD34+ HSPCs; experiment: Cell viability / apoptosis assay (Annexin V/7-AAD) in shRNA-transduced HSPCs; details: for sensitivity to induction therapy drugs (cell viability): MTF2-deficient HSPCs, in combination with Cytarabine or Daunorubicin
Protocol: HSPCs (Lin^−CD34^+) were maintained in IMDM media containing bovine serum albumin, insulin, and transferrin (Stem Cell Technologies), 1% PenStrep (ThermoFisher), SCF (100 ng/mL), TPO (50 ng/mL), FLT3 (100 ng/mL), 1% Glutamax (InVitrogen), and LDL (1 μg/ml) (Calbiochem). Growth factors were purchased from Peprotech. On Day 1 of infection, cells were incubated with polybrene (Sigma) (6 mg/ml) for 2 hours at 37° C., then combined with viral supernatants containing either a GFP-tagged MTF2 shRNA clone or a scrambled shRNA control (ThermoFisher) at a MOI of 100. Cells were centrifuged at 400 g for 20 minutes, then maintained at 37° C. On Day 2, the infection was repeated. Cells were grown for 3 days using a fed-batch culture system^21, then sorted for high GFP-expression and viability by negative selection of Propidium Iodide using the Beckman Coulter MoFlo sorter.
(§1) Apoptosis was assessed in sorted cells by the dual staining of AnnexinV and 7-AAD (eBiosciences). Flow cytometric analyses of treated samples were performed consistently, using the same gating strategy throughout. Viable cells were categorized as being AnnexinV and 7-AAD negative, late apoptotic/dead cells were categorized as being AnnexinV and 7-AAD positive.
(§2) Lin^−CD34^+ cells isolated from either umbilical cord blood or primary AML patient bone marrow aspirates were transduced as above, sorted for GFP^+ and cultured in 96-well plates at 100,000 cells/100 uL/well in duplicates. The drugs Daunorubicin, Cytarabine, Nutlin3a and M1773 were dissolved in DMSO. Cytarabine and Daunorubicin were added at concentrations of 1 μM and 0.5 μM, respectively. After 1 hour of incubation with Daunorubicin, cells were collected and transferred into fresh media to remove Daunorubicin from the media. The MDM2 pathway inhibitors, Nutlin3a and M1773 were added at concentrations of 1 μM.

[2] = system: MTF2 deficient refractory AML cells [MD-AML]; experiment: Cell viability / apoptosis assay (Annexin V/7-AAD) in primary AML patient cells; details: for viability of CD34+CD38− cells from MD-AML patients: 0.5 μM Daunorubicin or 1 μM Cytarabine, over 48 hours; for apoptosis: MD-AML cells, in combination with Cytarabine or Daunorubicin; for sensitivity to Cytarabine / sensitivity to Daunorubicin: MD-AML, comparable to B-AML; for sensitivity to Cytarabine: combination with Cytarabine; for sensitivity to Daunorubicin: combination with Daunorubicin; for apoptosis / apoptotic effect, MDM2 inhibitor alone: treatment alone, over the course of 48 hours
Protocol: Lin^−CD34^+ primary AML bone marrow cells were maintained in IMDM media containing SCF (100 ng/mL), FLT3 (50 ng/mL), IL-3 (20 ng/mL), G-CSF (20 ng/mL) and 10^−4M Beta-mercaptoethanol^21. Growth factors were purchased from Peprotech. On Day 1 of infection, cells were incubated with polybrene (6 mg/ml) for 2 hours at 37° C., then combined with viral supernatants containing either a GFP-tagged MTF2 overexpression vector clone or an empty vector control at a MOI of 30.
as §1, §2

[3] = system: MTF2 shRNA knockdown (SH3 or SH7) HSPCs; experiment: Cell cycle (DRAQ5) and PCNA proliferation analysis in HSPCs; details: for fraction of viable MTF2-deficient cells that were PCNA+: MTF2-deficient HSPCs, 48 hours post-treatment; for overall PCNA levels (proliferation): MTF2 deficient (SH3 or SH7) HSPCs, 1 μM, 24 hours post-treatment; for population distribution within the cell cycle stages: scramble or MTF2 knockdown HSPCs, 1 μM for 24 hours
Protocol: (§3) Cells were sorted using cell surface markers, then fixed in 4% PFA, permeabilized with 0.3% Triton and stained for MTF2 (Genway, clone M96), EZH2 (Millipore, clone AC22), SUZ12 (Millipore, clone 2AO9), H3K27me3 (Cell Signaling, clone C36B11), PCNA (Santa Cruz, clone C10), p53 (Cell Signaling, clone 1C12), or MDM2 (Santa Cruz, clone C18) and appropriate secondary antibodies. Protein expression was determined by flow cytometry compared with an isotype-only control and ran on the LSRFortessa™ Cell Analyzer (BD Biosciences). Data analysis was performed using FlowJo v10.2 to compare mean fluorescent intensity values.
(§4) For cell cycle analysis, cells were fixed and stained with DRAQ5 (BD Biosciences) to assess cell cycle state. For assessing p53 signaling and MTF2 rescue experiments, cells were stained with antibodies against p53, MDM2 or H3K27me3 as above and with DRAQ5 for nucleic acid detection. Cells were analyzed using the ImageStream imaging flow cytometer (Amnis). The nuclear contents of each protein were determined using the preset wizard tool “Nuclear Localization”, within the Amnis IDEAS analysis software.
as §2

[4] = system: Lin−CD34+ HSPCs; experiment: Alkaline comet assay (DNA damage accumulation, Olive moment); details: for DNA damage accumulation (Olive moment): scramble vs MTF2 shRNA transduced HSPCs, over a 48-hour period; for DNA damage accumulation: MTF2-deficient HSPCs, in combination with Cytarabine or Daunorubicin
Protocol: Alkaline comet assays were performed using GelBond Films and buffers were prepared as described^22. Slides were stained with SYBR Gold and imaged using Zeiss Axio2 Imaging inverted microscope equipped with a 5× Plan-NEOFLUAR 0.3NA objective and an AxioCam MRm camera through a FITC-compatible filter. At least 10 random fields containing a minimum of 20 non-overlapping comets in each group total were photographed. Blinded imaging acquisition and analysis was performed using ImageJ software (NIH) and the OpenComet comet assay plugin calculating Olive moment (arbitrary units) on the basis of comet head and tail sizes (measured in pixels) and their integral intensity. The magnitude of these parameters depends on time of electrophoresis, staining brightness and image magnification, which were constant within each assay and between experiments. Comet assays were independently repeated using HSPCs isolated from 3 different UCB samples. Statistical significance was determined by two-way ANOVA using GraphPad Prism software version 6.
as §2

[5] = system: MDM2 and p53 levels; experiment: Imaging flow cytometry of MDM2 and p53 levels in MTF2 knockdown HSPCs; details: for MDM2 and p53 levels within the nucleus: MTF2 knockdown (SH3) HSPCs, 1 μM
Protocol: as §3, §4, §2

[6] = system: p53 levels in Lin−CD34+ leukemic cells (MD-AML); experiment: Imaging flow cytometry of p53 levels in refractory patient leukemic cells; details: Lin−CD34+ leukemic cells from refractory patient BM aspirates (MD-AML)
Protocol: as §3, §4
Lin^−CD34^+ cells isolated from either umbilical cord blood or primary AML patient bone marrow aspirates were transduced as above, sorted for GFP^+ and cultured in 96-well plates at 100,000 cells/100 uL/well in duplicates. […]

[7] = MTF2 knockdown (SH7) HSPCs, 1 uM

Row | Structure (SMILES) | viability at 1 µM ([1]; Homo sapiens, MTF2 shRNA knockdown HSPCs, 48 hours after treatment (Daunorubicin 0.5 μM or Cytarabine 1 μM), read-out: MTF2-deficient cells viable) [%] | viability of CD34+CD38− cells from MD-AML patients [2] | fraction of viable MTF2-deficient cells that were PCNA+ [3] | DNA damage accumulation (Olive moment) [4] | sensitivity to induction therapy drugs (cell viability) [1] | apoptosis [2] | sensitivity to Cytarabine ([2]; 48 hours) | sensitivity to Cytarabine ([2]; within 24 hours) | sensitivity to Daunorubicin ([2]; 48 hours) | sensitivity to Daunorubicin ([2]; within 24 hours) | apoptosis / apoptotic effect, MDM2 inhibitor alone [2] | p53 levels ([5]; MTF2-deficient HSPCs) | MDM2 and p53 levels within the nucleus [5] | MDM2 levels [5, 7] | p53 levels [5, 7] | p53 levels [6] | overall PCNA levels (proliferation) [3] | population distribution within the cell cycle stages [3] | DNA damage accumulation [4] | apoptosis / apoptotic effect, MDM2 inhibitor alone ([2]; listed as Nutlin3a)
1 | Nc1ccn([C@@H]2O[C@H](CO)[C@@H](O)[C@@H]2O)c(=O)n1 [Cytarabine] | > 60 | remain viable over 48 hours | two-thirds | highest levels of DNA damage were found in the scramble control HSPCs | – | – | – | – | – | – | – | – | – | – | – | – | – | – | – | –
2 | COc1cccc2c1C(=O)c1c(O)c3c(c(O)c1C2=O)C[C@@](O)(C(C)=O)C[C@@H]3O[C@H]1C[C@H](N)[C@H](O)[C@H](C)O1 [Daunorubicin] | – | remain viable over 48 hours | two-thirds | highest levels of DNA damage were found in the scramble control HSPCs | – | – | – | – | – | – | – | – | – | – | – | – | – | – | – | –
3 | CC(C)(C)C[C@H]1N[C@@H](C(=O)NC2CCC(O)CC2)[C@H](c2cccc(Cl)c2F)[C@@]12C(=O)Nc1cc(Cl)ccc12 (stereo partly drawn) [MI-773, (2′R,3S,3′S,5′R)-6-chloro-3′-(3-chloro-2-fluorophenyl)-5′-(2,2-dimethylpropyl)-N-(4-hydroxycyclohexyl)-2-oxospiro[1H-indole-3,4′-pyrrolidine]-2′-carboxamide] | – | – | – | – | sensitized to induction therapy drugs | underwent apoptosis | increased sensitivity | increased sensitivity | increased sensitivity | increased sensitivity | very low apoptotic effect | rescued | reestablished MDM2 and p53 levels to those observed in the scramble untreated control | low | restored | rescued | decrease in overall PCNA levels | arresting in G0/G1 | same amount of DNA damage accumulation as that found within scramble controls | –
4 | COc1ccc(C2=N[C@@H](c3ccc(Cl)cc3)[C@@H](c3ccc(Cl)cc3)N2C(=O)N2CCNC(=O)C2)c(OC(C)C)c1 [Nutlin3A, 4-[(4S,5R)-4,5-bis(4-chlorophenyl)-2-(4-methoxy-2-propan-2-yloxyphenyl)-4,5-dihydroimidazole-1-carbonyl]piperazin-2-one] | – | – | – | – | sensitized to induction therapy drugs | underwent apoptosis | increased sensitivity | increased sensitivity | increased sensitivity | increased sensitivity | – | rescued | reestablished MDM2 and p53 levels to those observed in the scramble untreated control | low | restored | rescued | decrease in overall PCNA levels | arresting in G0/G1 | same amount of DNA damage accumulation as that found within scramble controls | very low apoptotic effect
